Values after ≈ are worked out from the molar mass of the structure shown. Values belong to the molecule of their own block, whether it stands above or below them.
Legend:
[1] = system: C. orthopsilosis MUM 17.13; experiment: MIC, CLSI M27 broth microdilution; assay type: cell-based, Candida orthopsilosis; conditions: C. orthopsilosis MUM 17.13, antifungal drugs
Source text: (§1) The fungal strains used in this study were C. albicans ATCC 10231, C. albicans ATCC 64550, C. parapsilosis ATCC 22019, C. tropicalis ATCC 750, C. tropicalis ATCC 200956 (resistant to azoles and AMB), C. glabrata LMDM 34 (resistant to echinocandins), C. metapsilosis MUM 15.12, C. orthopsilosis MUM 17.13, C. lusitaniae MUM 17.08, C. krusei ATCC 6258 (Issatchenkia orientalis ATCC 6258), and C. auris CDC B11903. Additionally, nine clinical isolates were included: C. parapsilosis Synlab 406 (FLC-resistant) and eight C. auris isolates identified by MALDI-TOF MS (Bruker Daltonics, Bremen, Germany) according to Zhao et al.. These yeasts were cultured on Sabouraud Dextrose Agar (SDA; Sigma-Aldrich, St. Louis, MO, USA) for 24 h at 35 °C.
(§2) Antifungal susceptibility testing was performed according to Clinical and Laboratory Standards Institute M27, 4th Edition (CLSI standard M27, 4th Edition). Some modifications were applied for evaluation of the antifungal activity of EOs and terpenes. Initially, a screening was carried out to determine the antifungal activity of the EOs and of commercial terpenes. Stock concentrations of EOs and terpenes were prepared at 512 µg/mL and an inoculum of 2.5 × 10^3 CFU/mL of each yeast was prepared in RPMI 1640-MOPS (Sigma- Aldrich St. Louis, MO, USA). Thereafter, 100 µL of each stock solution of EOs or terpenes was dispensed in 96-well microdilution plates (Corning®, Costar®, NY, USA) and 100 µL of each yeast inoculum was added. […] Microdilution plates were incubated at 35 °C and, after 24 h, the presence or absence of growth was visually checked using a manual mirror viewer and then compared with the amount of growth in the control (no EO or terpene). Compounds able to inhibit yeast growth were tested to determine the minimal inhibitory concentration (MIC) as follows: 100 µL of 10 two-fold dilutions of the EOs or commercial terpenes was dispensed in 96-well microplates and the yeast inoculum was added. Final concentrations of the EOs or terpenes ranged from 0.5 µg/mL to 256 µg/mL. Microdilution plates were incubated at 35 °C for 24 h. MICs were visually determined at the lowest concentration that produced visual inhibition compared to the growth control. The assays were performed at least three times in duplicate on different days. The results were expressed as geometric means (GM) and ranges. As an antifungal susceptibility testing control, the activity of ITC and AMB against the reference strains C. krusei ATCC 6258 and C. parapsilosis ATCC 22019 was evaluated in all experiments following the CLSI standard M27, 4th Edition. It was mandatory that the MIC values remained in the accepted range.

C. albicans ATCC 64550 = experiment: MIC, CLSI M27 broth microdilution; assay type: cell-based, Candida albicans; conditions: antifungal drugs
Source text: as §1, §2

C. albicans ATCC 10231 = experiment: MIC, CLSI M27 broth microdilution; assay type: cell-based, Candida albicans; conditions: antifungal drugs
Source text: as §1, §2

C. glabrata LMDM 34 = experiment: MIC, CLSI M27 broth microdilution; assay type: cell-based, Candida glabrata
Source text: as §1, §2

[2] = system: C. parapsilosis Synlab 406; experiment: MIC, CLSI M27 broth microdilution; assay type: cell-based, Candida parapsilosis; conditions: C. parapsilosis Synlab 406, antifungal drugs
Source text: as §1, §2

[3] = system: C. parapsilosis ATCC 22019; experiment: MIC, CLSI M27 broth microdilution; assay type: cell-based, Candida parapsilosis; conditions: antifungal drugs
Source text: as §1, §2

C. tropicalis ATCC 750 = experiment: MIC, CLSI M27 broth microdilution; assay type: cell-based, Candida tropicalis; conditions: antifungal drugs
Source text: as §1, §2

[4] = system: C. tropicalis ATCC 200956; experiment: MIC, CLSI M27 broth microdilution; assay type: cell-based, Candida tropicalis; conditions: C. tropicalis ATCC 200956, antifungal drugs
Source text: as §1, §2

C. krusei ATCC 6258 = experiment: MIC, CLSI M27 broth microdilution; assay type: cell-based, Candida krusei; conditions: C. krusei ATCC 6258, antifungal drugs
Source text: as §1, §2

C. lusitaniae MUM 17.08 = experiment: MIC, CLSI M27 broth microdilution; assay type: cell-based, Candida lusitaniae; conditions: C. lusitaniae MUM 17.08, antifungal drugs
Source text: as §1, §2

C. auris Ca 10 = experiment: MIC, CLSI M27 broth microdilution; assay type: cell-based, Candida auris; conditions: antifungal drugs
Source text: as §1, §2

C. auris Ca 9 = experiment: MIC, CLSI M27 broth microdilution; assay type: cell-based, Candida auris; conditions: C. auris Ca 9, antifungal drugs
Source text: as §1, §2

C. auris Ca 46 = experiment: MIC, CLSI M27 broth microdilution; assay type: cell-based, Candida auris; conditions: C. auris Ca 46, antifungal drugs
Source text: as §1, §2

C. auris Ca 32 = experiment: MIC, CLSI M27 broth microdilution; assay type: cell-based, Candida auris; conditions: C. auris Ca 32, antifungal drugs
Source text: as §1, §2

C. auris CDC B11903 = experiment: MIC, CLSI M27 broth microdilution; assay type: cell-based, Candida auris; conditions: C. auris CDCB11903, antifungal drugs
Source text: as §1, §2

C. auris Ca 17 = experiment: MIC, CLSI M27 broth microdilution; assay type: cell-based, Candida auris; conditions: C. auris Ca 17, antifungal drugs
Source text: as §1, §2

C. auris Ca 45 = experiment: MIC, CLSI M27 broth microdilution; assay type: cell-based, Candida auris; conditions: C. auris Ca 45, antifungal drugs
Source text: as §1, §2

C. auris Ca 41 = experiment: MIC, CLSI M27 broth microdilution; assay type: cell-based, Candida auris; conditions: C. auris Ca 41, antifungal drugs
Source text: as §1, §2

C. auris Ca 1 = experiment: MIC, CLSI M27 broth microdilution; assay type: cell-based, Candida auris; conditions: C. auris Ca 1, antifungal drugs
Source text: as §1, §2

[5] = system: C. metapsilosis MUM 15.12; experiment: MIC, CLSI M27 broth microdilution; assay type: cell-based, Candida metapsilosis; conditions: C. metapsilosis MUM 15.12, antifungal drugs
Source text: as §1, §2

C. auris = experiment: Screening of antifungal activity at 256 µg/mL against C. auris; assay type: cell-based, Candida auris; conditions: screening at 256 µg/mL, clinical isolates of C. auris
Source text: as §1
Antifungal susceptibility testing was performed according to Clinical and Laboratory Standards Institute M27, 4th Edition (CLSI standard M27, 4th Edition). Some modifications were applied for evaluation of the antifungal activity of EOs and terpenes. Initially, a screening was carried out to determine the antifungal activity of the EOs and of commercial terpenes. Stock concentrations of EOs and terpenes were prepared at 512 µg/mL and an inoculum of 2.5 × 10^3 CFU/mL of each yeast was prepared in RPMI 1640-MOPS (Sigma- Aldrich St. Louis, MO, USA). Thereafter, 100 µL of each stock solution of EOs or terpenes was dispensed in 96-well microdilution plates (Corning®, Costar®, NY, USA) and 100 µL of each yeast inoculum was added. […] MICs were visually determined at the lowest concentration that produced visual inhibition compared to the growth control. […] The results were expressed as geometric means (GM) and ranges. As an antifungal susceptibility testing control, the activity of ITC and AMB against the reference strains C. krusei ATCC 6258 and C. parapsilosis ATCC 22019 was evaluated in all experiments following the CLSI standard M27, 4th Edition. […]

MIC Range [1]: 1 µg/mL (≈ 0.915 µM) | MIC ([1]; Lodderomyces orthopsilosis, MUM17.13, geometric mean, read-out: MIC GM): 1 µg/mL (≈ 0.915 µM) | MIC (C. albicans ATCC 64550; Candida albicans, ATCC64550, geometric mean): 0.35 µg/mL (≈ 0.32 µM) | MIC Range (C. albicans ATCC 64550): 0.25 to 0.5 µg/mL | MIC (C. albicans ATCC 10231; Candida albicans, ATCC10231, geometric mean): 0.18 µg/mL (≈ 0.165 µM) | MIC Range (C. albicans ATCC 10231): 0.12 to 0.25 µg/mL | MIC (C. glabrata LMDM 34; Nakaseomyces glabratus, LMDM34, geometric mean, antifungal drugs): 8 µg/mL (≈ 7.32 µM) | MIC Range (C. glabrata LMDM 34; antifungal drugs): 8 µg/mL (≈ 7.32 µM) | MIC Range [2]: 2 µg/mL (≈ 1.83 µM) | MIC ([2]; Lodderomyces parapsilosis, SYNLAB406, geometric mean, read-out: MIC GM): 2 µg/mL (≈ 1.83 µM) | MIC ([3]; Lodderomyces parapsilosis, ATCC22019, geometric mean): 1 µg/mL (≈ 0.915 µM) | MIC Range [3]: 1 µg/mL (≈ 0.915 µM) | MIC (C. tropicalis ATCC 750; Candida tropicalis, ATCC750, geometric mean): 0.35 µg/mL (≈ 0.32 µM) | MIC Range (C. tropicalis ATCC 750): 0.25 to 0.5 µg/mL | MIC Range [4]: 0.5 µg/mL (≈ 0.457 µM) | MIC ([4]; Candida tropicalis, ATCC200956, geometric mean, read-out: MIC GM): 0.5 µg/mL (≈ 0.457 µM) | MIC Range (C. krusei ATCC 6258): 1 µg/mL (≈ 0.915 µM) | MIC (C. krusei ATCC 6258; Pichia kudriavzevii, ATCC6258, geometric mean, read-out: MIC GM): 1 µg/mL (≈ 0.915 µM) | MIC Range (C. lusitaniae MUM 17.08): 1 µg/mL (≈ 0.915 µM) | MIC (C. lusitaniae MUM 17.08; Clavispora lusitaniae, MUM17.08, geometric mean, read-out: MIC GM): 1 µg/mL (≈ 0.915 µM) | MIC (C. auris Ca 10; Candidozyma auris, CA10, geometric mean): 0.7 µg/mL (≈ 0.64 µM) | MIC Range (C. auris Ca 10): 0.5 to 1 µg/mL | MIC Range (C. auris Ca 9): 0.5 µg/mL (≈ 0.457 µM) | MIC (C. auris Ca 9; Candidozyma auris, CA9, geometric mean, read-out: MIC GM): 0.5 µg/mL (≈ 0.457 µM) | MIC Range (C. auris Ca 46): 0.5 µg/mL (≈ 0.457 µM) | MIC (C. auris Ca 46; Candidozyma auris, CA46, geometric mean, read-out: MIC GM): 0.5 µg/mL (≈ 0.457 µM) | MIC Range (C. auris Ca 32): 0.5 µg/mL (≈ 0.457 µM) | MIC (C. auris Ca 32; Candidozyma auris, CA32, geometric mean, read-out: MIC GM): 0.5 µg/mL (≈ 0.457 µM) | MIC Range (C. auris CDC B11903): 0.5 µg/mL (≈ 0.457 µM) | MIC (C. auris CDC B11903; Candidozyma auris, geometric mean, read-out: MIC GM): 0.5 µg/mL (≈ 0.457 µM) | MIC Range (C. auris Ca 17): 0.5 µg/mL (≈ 0.457 µM) | MIC (C. auris Ca 17; Candidozyma auris, CA17, geometric mean, read-out: MIC GM): 0.5 µg/mL (≈ 0.457 µM) | MIC Range (C. auris Ca 45): 0.5 µg/mL (≈ 0.457 µM) | MIC (C. auris Ca 45; Candidozyma auris, CA45, geometric mean, read-out: MIC GM): 0.5 µg/mL (≈ 0.457 µM) | MIC Range (C. auris Ca 41): 0.5 µg/mL (≈ 0.457 µM) | MIC (C. auris Ca 41; Candidozyma auris, CA41, geometric mean, read-out: MIC GM): 0.5 µg/mL (≈ 0.457 µM) | MIC Range (C. auris Ca 1): 0.5 µg/mL (≈ 0.457 µM) | MIC (C. auris Ca 1; Candidozyma auris, CA1, geometric mean, read-out: MIC GM): 0.5 µg/mL (≈ 0.457 µM) | MIC Range [5]: 1 µg/mL (≈ 0.915 µM) | MIC ([5]; Lodderomyces metapsilosis, MUM15.12, geometric mean, read-out: MIC GM): 1 µg/mL (≈ 0.915 µM)
Structure (SMILES): CC[C@H](C)C[C@H](C)CCCCCCCCC(=O)N[C@H]1C[C@@H](O)[C@@H](NCCN)NC(=O)[C@@H]2[C@@H](O)CCN2C(=O)[C@H]([C@H](O)CCN)NC(=O)[C@H]([C@H](O)[C@@H](O)c2ccc(O)cc2)NC(=O)[C@@H]2C[C@@H](O)CN2C(=O)[C@H]([C@@H](C)O)NC1=O [CSF, caspofungin]
susceptibility category (C. glabrata LMDM 34; resistance confirmed): resistance

Structure (SMILES): CC1=CC(=O)[C@@H]2C[C@H]1C2(C)C [verbenone]
antifungal activity in screening against C. auris (C. auris): active against only some of the clinical isolates of C. auris

Structure (SMILES): C=C1CC/C=C(\C)CC[C@@H]2[C@@H]1CC2(C)C (relative stereo) [trans-β-caryophyllene]
antifungal activity in screening against C. auris (C. auris): active against only some of the clinical isolates of C. auris

— publication PMC9606955, “In Vitro Activity of Essential Oils Distilled from Colombian Plants against Candida auris and Other Candida Species with Different Antifungal Susceptibility Profiles” (Molecules, 2022)
